Assay results published in US11214803B2, “Modulators of YAP1 expression” (Ionis Pharmaceuticals, Inc., priority 2019, dated 2022).
Strand notation (5' to 3'): a small letter for the sugar, then the base; units joined by * are phosphorothioate-linked, units joined directly phosphodiester-linked; [ ] holds rarer units or linkages, { } end groups; capitals alone tell only the bases. k = constrained ethyl (cEt); [5mC] = 5-methylcytosine; d = 2'-deoxy (DNA)

Test system: Yap1 mRNA
Assay: Antisense inhibition of human Yap1 in A-431 cells by cEt gapmers, single dose (Example 3, RTS36584)
Type: cell-based
Procedure, shortened: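 Human epidermoid A-431 cells take up gapmer (2,000 nM, free uptake, ~48 h); Yap1 transcript is then assayed by qRT-PCR with RiboGreen normalization and reported relative to untreated cells. Gapmers carry cEt-modified wings, phosphorothioate linkages and 5-methylcytosine throughout.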

[1] = Table 13, A-431 cells, 5,000 cells per well, free uptake, 2,000 nM modified oligonucleotide, approx. 48 hours, RTS36584, normalized to RIBOGREEN, Yap1 mRNA relative to untreated control cells
[2] = Table 35, Yap1 mRNA as percent of untreated control, 3-10-3 cEt gapmers targeting SEQ ID NO: 1 and 2, single dose
[3] = Table 27, Yap1 mRNA by 3-10-3 cEt gapmers targeting SEQ ID NO.: 1, and 2, percent of untreated control
[4] = Table 29, Yap1 mRNA as percent of untreated control, 3-10-3 cEt gapmers targeting SEQ ID NO.: 1, and 2
[5] = Table 26, Yap1 mRNA by 3-10-3 cEt gapmers targeting SEQ ID NO.: 1, and 2, percent of untreated control
[6] = Table 9, A-431 cells, 5,000 cells per well, free uptake, 2,000 nM, approximately 48 hours, RTS36584, normalized to RIBOGREEN, Yap1 mRNA relative to untreated control cells
[7] = Table 12, A-431 cells, 5,000 cells per well, free uptake, 2,000 nM modified oligonucleotide, approx. 48 hours, RTS36584, normalized to RIBOGREEN, Yap1 mRNA relative to untreated control cells
[8] = Table 10, A-431 cells, 5,000 cells per well, free uptake, 2,000 nM oligonucleotide, approx. 48 hours, primer probe set RTS36584, Yap1 mRNA normalized to RIBOGREEN, percent of untreated control
[9] = Table 11, A-431 cells, 5,000 cells per well, free uptake, 2,000 nM oligonucleotide, approx. 48 hours, primer probe set RTS36584, Yap1 mRNA normalized to RIBOGREEN, percent of untreated control
[10] = Table 28, Yap1 mRNA as percent of untreated control, 3-10-3 cEt gapmers targeting SEQ ID NO.: 1, and 2
[11] = Table 8, A-431 cells, 5,000 cells per well, free uptake, 2,000 nM, approximately 48 hours, RTS36584, normalized to RIBOGREEN, Yap1 mRNA relative to untreated control cells
[12] = Table 34, Yap1 mRNA as percent of untreated control, 3-10-3 cEt gapmers targeting SEQ ID NO: 1 and 2, single dose

Substance: 958565 (kT*kT*kG*dA*dG*d[5mC]*dA*d[5mC]*dT*dG*dA*dA*dA*kG*kT*kA; antisense) [Compound 958565]
- YAP1 (% UTC) [1]: 4 % UTC

Substance: 958720 (antisense kG*kT*k[5mC]*dT*dA*d[5mC]*dT*dA*dG*dA*dG*d[5mC]*dT*kG*k[5mC]*k[5mC]) [Compound 958720]
- YAP1 (% UTC) [1]: 12 % UTC

Substance: 1075029 (antisense kA*kT*kA*dT*dT*d[5mC]*dG*dA*d[5mC]*dA*d[5mC]*dT*dG*kG*kA*kG) [compound 1075029]
- YAP1 (% UTC) [2]: 33 % UTC

Substance: 1074189 (antisense kG*kG*k[5mC]*dT*dG*d[5mC]*dG*dA*dA*dG*dG*d[5mC]*dG*kG*k[5mC]*kT) [compound 1074189]
- YAP1 (% UTC) [3]: 96 % UTC

Substance: 1076335 (antisense k[5mC]*kA*k[5mC]*d[5mC]*dT*dA*dT*dA*dA*dG*dG*dA*dA*kT*kG*kG) [compound 1076335]
- YAP1 (% UTC) [4]: 80 % UTC

Substance: 1075788 (kT*k[5mC]*kT*dT*dA*dA*dG*dG*dA*dT*dT*dG*dG*k[5mC]*kT*kA; antisense) [compound 1075788]
- YAP1 (% UTC) [5]: 15 % UTC

Substance: 958586 (kG*kG*k[5mC]*dA*dG*d[5mC]*dA*d[5mC]*dG*dG*dT*dG*dT*kA*kA*kG; antisense) [Compound 958586]
- YAP1 (% UTC) [6]: 78 % UTC

Substance: 958769 (antisense k[5mC]*kA*kT*dT*dG*d[5mC]*d[5mC]*dA*d[5mC]*dG*dA*dT*d[5mC]*kT*kA*kA) [Compound 958769]
- YAP1 (% UTC) [7]: 36 % UTC

Substance: 1075829 (kA*k[5mC]*kT*d[5mC]*dA*dA*dT*dA*dG*dA*dT*d[5mC]*dA*kT*kT*kG; antisense) [compound 1075829]
- YAP1 (% UTC) [2]: 41 % UTC

Substance: 958461 (antisense kG*k[5mC]*k[5mC]*dG*dA*dA*dG*d[5mC]*dA*dG*dT*dT*d[5mC]*kT*kT*kG) [Compound 958461]
- YAP1 (% UTC) [6]: 79 % UTC

Substance: 958776 (antisense kG*kG*kT*dA*d[5mC]*dT*d[5mC]*dT*d[5mC]*d[5mC]*dT*dT*d[5mC]*kA*kG*kA) [Compound 958776]
- YAP1 (% UTC) [6]: 94 % UTC

Substance: 1076269 (kG*kA*k[5mC]*dG*dA*dA*dA*dA*dA*dT*dA*dT*dT*k[5mC]*kT*kT; antisense) [compound 1076269]
- YAP1 (% UTC) [3]: 28 % UTC

Substance: 958477 (antisense kA*kT*kT*dT*d[5mC]*d[5mC]*dG*dG*dT*dG*d[5mC]*dA*dT*kG*kT*kG) [Compound 958477]
- YAP1 (% UTC) [8]: 2 % UTC

Substance: 958453 (antisense kG*k[5mC]*k[5mC]*dT*d[5mC]*dA*dT*dG*dG*dG*d[5mC]*dA*d[5mC]*kG*kG*kT) [Compound 958453]
- YAP1 (% UTC) [9]: 70 % UTC

Substance: 958797 (antisense kA*k[5mC]*kG*dA*dG*d[5mC]*dA*d[5mC]*dA*dG*d[5mC]*dA*d[5mC]*k[5mC]*k[5mC]*kT) [Compound 958797]
- YAP1 (% UTC) [8]: 13 % UTC

Substance: 958577 (kT*k[5mC]*kT*dG*dT*dG*dG*d[5mC]*dT*dA*d[5mC]*dT*dG*kG*k[5mC]*kA; antisense) [Compound 958577]
- YAP1 (% UTC) [8]: 4 % UTC

Substance: 1074188 (antisense kG*k[5mC]*kT*dG*d[5mC]*dG*dA*dA*dG*dG*d[5mC]*dG*dG*k[5mC]*kT*kG) [compound 1074188]
- YAP1 (% UTC) [5]: 113 % UTC

Substance: 1075886 (antisense k[5mC]*kA*kT*dA*dA*d[5mC]*dA*d[5mC]*dT*dG*dA*dA*dG*kG*kT*kG) [compound 1075886]
- YAP1 (% UTC) [10]: 60 % UTC

Substance: 958373 (antisense kA*kG*kG*dT*dG*d[5mC]*dT*dA*dG*d[5mC]*dT*dG*dG*kT*kG*k[5mC]) [Compound 958373]
- YAP1 (% UTC) [11]: 8 % UTC

Substance: 958538 (kA*kT*k[5mC]*d[5mC]*dA*dG*dG*dG*dT*d[5mC]*dA*dA*dT*kT*kT*kT; antisense) [Compound 958538]
- YAP1 (% UTC) [9]: 10 % UTC

Substance: 958363 (antisense kT*kG*kA*dG*d[5mC]*dT*d[5mC]*dG*dA*dA*d[5mC]*dA*dT*kG*k[5mC]*kT) [Compound 958363]
- YAP1 (% UTC) [11]: 70 % UTC

Substance: 1076405 (antisense kT*kT*kA*dT*dT*dT*dA*dA*dG*dA*d[5mC]*d[5mC]*dT*kG*kG*kT) [compound 1076405]
- YAP1 (% UTC) [2]: 12 % UTC

Substance: 1076564 (kT*kA*kA*dA*dG*dT*dA*dA*dT*dG*d[5mC]*dT*dA*k[5mC]*kA*kG; antisense) [compound 1076564]
- YAP1 (% UTC) [12]: 77 % UTC

Substance: 1075087 (antisense kT*k[5mC]*kT*d[5mC]*dA*dA*dT*dA*dA*dG*dT*dT*dA*kT*kA*kG) [compound 1075087]
- YAP1 (% UTC) [4]: 39 % UTC

Substance: 958587 (kG*kG*kT*dG*dA*d[5mC]*dT*dG*dA*dA*dA*d[5mC]*dT*k[5mC]*kT*kA; antisense) [Compound 958587]
- YAP1 (% UTC) [8]: 2 % UTC

Substance: 958623 (antisense kT*kT*kG*dA*dT*dA*dT*dT*d[5mC]*d[5mC]*dG*d[5mC]*dA*kT*kT*kG) [Compound 958623]
- YAP1 (% UTC) [9]: 3 % UTC

Substance: 1075695 (kG*kA*kA*dT*dA*dA*d[5mC]*dA*d[5mC]*d[5mC]*dA*d[5mC]*dA*kT*kT*kA; antisense) [compound 1075695]
- YAP1 (% UTC) [4]: 30 % UTC

Substance: 1075279 (antisense k[5mC]*kT*kA*dT*dA*d[5mC]*dT*dA*dA*d[5mC]*dA*dT*dT*k[5mC]*kA*k[5mC]) [compound 1075279]
- YAP1 (% UTC) [4]: 52 % UTC

Substance: 1075060 (antisense kG*kT*kT*dT*dA*dA*d[5mC]*dA*dA*dT*d[5mC]*dT*d[5mC]*k[5mC]*k[5mC]*k[5mC]) [compound 1075060]
- YAP1 (% UTC) [12]: 70 % UTC

Substance: 1074740 (kG*kG*kA*d[5mC]*dT*d[5mC]*dT*dT*dA*dG*dG*dT*d[5mC]*kT*k[5mC]*k[5mC]; antisense) [compound 1074740]
- YAP1 (% UTC) [12]: 75 % UTC

Substance: 1075636 (antisense k[5mC]*kA*kA*dT*dA*dA*dA*d[5mC]*dA*d[5mC]*d[5mC]*dT*d[5mC]*kG*k[5mC]*k[5mC]) [compound 1075636]
- YAP1 (% UTC) [12]: 91 % UTC

Substance: 958468 (antisense kT*kT*kG*dG*dT*dG*dG*d[5mC]*dA*dG*d[5mC]*d[5mC]*dA*kA*kA*kA) [Compound 958468]
- YAP1 (% UTC) [9]: 86 % UTC

Substance: 958608 (antisense kT*kG*kA*dT*dA*dG*dG*d[5mC]*dA*d[5mC]*dA*d[5mC]*d[5mC]*k[5mC]*kA*k[5mC]) [Compound 958608]
- YAP1 (% UTC) [9]: 11 % UTC

Substance: 1075948 (antisense kG*kG*kA*d[5mC]*dT*dA*dA*dA*dG*dA*dA*dT*dA*k[5mC]*kA*kG) [compound 1075948]
- YAP1 (% UTC) [5]: 31 % UTC

Substance: 958815 (kG*kG*kG*d[5mC]*dG*dA*dG*dG*dA*dG*dA*d[5mC]*dA*kG*kG*kT; antisense) [Compound 958815]
- YAP1 (% UTC) [1]: 16 % UTC

Substance: 958462 (antisense kA*k[5mC]*kT*dG*dG*d[5mC]*dT*dA*d[5mC]*dG*d[5mC]*dA*dG*kG*kG*k[5mC]) [Compound 958462]
- YAP1 (% UTC) [8]: 46 % UTC

Substance: 958519 (k[5mC]*k[5mC]*k[5mC]*d[5mC]*dT*dA*dG*dG*d[5mC]*dA*d[5mC]*dT*dA*kT*k[5mC]*k[5mC]; antisense) [Compound 958519]
- YAP1 (% UTC) [7]: 20 % UTC

Substance: 1075157 (k[5mC]*k[5mC]*kA*dG*dA*dA*dA*dA*dT*d[5mC]*dA*dT*dA*kG*kT*kA; antisense) [compound 1075157]
- YAP1 (% UTC) [2]: 19 % UTC

Substance: 1076140 (kA*k[5mC]*kG*dA*dA*dA*dA*dA*dA*dG*d[5mC]*d[5mC]*dA*kA*k[5mC]*kA; antisense) [compound 1076140]
- YAP1 (% UTC) [5]: 28 % UTC

Substance: 1075919 (antisense kT*k[5mC]*kT*dT*dA*dA*dA*d[5mC]*dT*dA*dA*d[5mC]*dT*kG*kT*kT) [compound 1075919]
- YAP1 (% UTC) [4]: 78 % UTC

Substance: 1074732 (k[5mC]*k[5mC]*kA*dG*dG*dT*dA*dT*d[5mC]*dA*d[5mC]*dA*dG*kT*kA*k[5mC]; antisense) [compound 1074732]
- YAP1 (% UTC) [5]: 30 % UTC

Substance: 1074990 (antisense kG*k[5mC]*k[5mC]*dG*d[5mC]*dA*dA*dA*dG*dG*dA*dA*dA*kG*kG*kG) [compound 1074990]
- YAP1 (% UTC) [10]: 108 % UTC

Substance: 1075343 (antisense kA*kA*k[5mC]*dT*dA*dA*dA*dA*dG*dG*dG*dA*dG*kT*kA*kG) [compound 1075343]
- YAP1 (% UTC) [4]: 89 % UTC
